Experimental findings from ChEMBL document CHEMBL5724914, “Linking interpersonal differences in gut microbiota composition and drug biotransformation activity” (2024) are described below.

The nature of data set [1]: The drug is tested on Z-013 corresponding to rabbit gut metagenome with ENA study accession number: PRJEB37062 and ENA sample accession number: ERS12561813 for biotransformation under anaerobic condition. The drug concentrations were measured over 9 timepoints collected between 0 and 24 hours of incubation by liquid-chromatography-coupled mass spectrometry (LC–MS). Conditions: 2 µM.

For data set [2] the following is noted: human gut metagenome, 24 h, 2 µM.
The nature of data set [3]: The drug is tested on Z-030 corresponding to mouse gut metagenome with ENA study accession number: PRJEB37062 and ENA sample accession number: ERS12561829 for biotransformation under anaerobic condition. The drug concentrations were measured over 9 timepoints collected between 0 and 24 hours of incubation by liquid-chromatography-coupled mass spectrometry (LC–MS). Conditions: 2 µM.

Data set [4] can be described thus: The drug is tested on Z-010 corresponding to metagenome with ENA study accession number: PRJEB37062 and ENA sample accession number: ERS12561810 for biotransformation under anaerobic condition. The drug concentrations were measured over 9 timepoints collected between 0 and 24 hours of incubation by liquid-chromatography-coupled mass spectrometry (LC–MS). Conditions: 2 µM.

The nature of data set [5]: The drug is tested on Z-006 corresponding to mouse gut metagenome with ENA study accession number: PRJEB37062 and ENA sample accession number: ERS12561806 for biotransformation under anaerobic condition. The drug concentrations were measured over 9 timepoints collected between 0 and 24 hours of incubation by liquid-chromatography-coupled mass spectrometry (LC–MS). Conditions: 2 µM.

Data set [6] is described as follows: The drug is tested on WLS-170 corresponding to human gut metagenome with ENA study accession number: PRJEB37062 and ENA sample accession number: ERS12561762 for biotransformation under anaerobic condition. The drug concentrations were measured over 9 timepoints collected between 0 and 24 hours of incubation by liquid-chromatography-coupled mass spectrometry (LC–MS). Conditions: 2 µM.

Data set [7] is described as follows: The drug is tested on Z-029 corresponding to rat gut metagenome with ENA study accession number: PRJEB37062 and ENA sample accession number: ERS12561828 for biotransformation under anaerobic condition. The drug concentrations were measured over 9 timepoints collected between 0 and 24 hours of incubation by liquid-chromatography-coupled mass spectrometry (LC–MS). As to conditions: 2 µM.

Data set [8] can be described thus: The drug is tested on Z-016 corresponding to mouse gut metagenome with ENA study accession number: PRJEB37062 and ENA sample accession number: ERS12561815 for biotransformation under anaerobic condition. The drug concentrations were measured over 9 timepoints collected between 0 and 24 hours of incubation by liquid-chromatography-coupled mass spectrometry (LC–MS). Conditions: 2 µM.

Data set [9] is described as follows: The drug is tested on Z-021 corresponding to metagenome with ENA study accession number: PRJEB37062 and ENA sample accession number: ERS12561820 for biotransformation under anaerobic condition. The drug concentrations were measured over 9 timepoints collected between 0 and 24 hours of incubation by liquid-chromatography-coupled mass spectrometry (LC–MS). Conditions: 2 µM.

The conditions of data set [10]: human gut metagenome, 24 h, 2 µM. This is another data set of the same source.
For data set [11] the following is noted: human gut metagenome, 24 h, 2 µM. This is another data set of the same source.
Data set [12] can be described thus: The drug is tested on Z-004 corresponding to metagenome with ENA study accession number: PRJEB37062 and ENA sample accession number: ERS12561804 for biotransformation under anaerobic condition. The drug concentrations were measured over 9 timepoints collected between 0 and 24 hours of incubation by liquid-chromatography-coupled mass spectrometry (LC–MS). Conditions: 2 µM.

For data set [13] the following is noted: human gut metagenome, 24 h, 2 µM. This is another data set of the same source.
For data set [14] the following is noted: human gut metagenome, 24 h, 2 µM. The source holds these as a separate data set.
For data set [15] the following is noted: human gut metagenome, 24 h, 2 µM. This is another data set of the same source.
A short description of data set [16]: The drug is tested on WLS-240 corresponding to human gut metagenome with ENA study accession number: PRJEB37062 and ENA sample accession number: ERS12561773 for biotransformation under anaerobic condition. The drug concentrations were measured over 9 timepoints collected between 0 and 24 hours of incubation by liquid-chromatography-coupled mass spectrometry (LC–MS). Conditions: 2 µM.

For data set [17] the following is noted: human gut metagenome, 24 h, 2 µM. The source holds these as a separate data set.
Data set [18] is described as follows: The drug is tested on WLS-082 corresponding to human gut metagenome with ENA study accession number: PRJEB37062 and ENA sample accession number: ERS12561751 for biotransformation under anaerobic condition. The drug concentrations were measured over 9 timepoints collected between 0 and 24 hours of incubation by liquid-chromatography-coupled mass spectrometry (LC–MS). As to conditions: 2 µM.

The conditions of data set [19]: human gut metagenome, 24 h, 2 µM. The source holds these as a separate data set.
For data set [20] the following is noted: human gut metagenome, 24 h, 2 µM. The source holds these as a separate data set.
Also: call rule not given here.

As for `NS(=O)(=O)c1cc2c(cc1Cl)N=C(CSCc1ccccc1)NS2(=O)=O` [BENZTHIAZIDE], the “Bacterial Biotransformation” value in data set [1], in data set [2], in data set [3], in [4], in data set [5] and in data set [6] was “Compound NOT metabolized” throughout. In addition, the “Bacterial Biotransformation” value in data set [7] is “Compound NOT metabolized”; in data set [8], “Compound NOT metabolized”; in data set [9], “Compound metabolized”; in data set [10], “Compound NOT metabolized”; in [11], “Compound NOT metabolized”; in data set [12], “Compound NOT metabolized”. For the same molecule, the “Bacterial Biotransformation” value in data set [13], in data set [14], in [15], in data set [16], in data set [17] and in data set [18] was “Compound NOT metabolized” throughout. Further, the “Bacterial Biotransformation” value in data set [19] and in data set [20] was “Compound NOT metabolized” throughout.
For the molecule `CC(C)NCC(O)COc1ccc(COCCOC(C)C)cc1.CC(C)NCC(O)COc1ccc(COCCOC(C)C)cc1.O=C(O)/C=C/C(=O)O` (stereo not given) [BISOPROLOL FUMARATE], the “Bacterial Biotransformation” value in [1] was “Compound NOT metabolized”; in data set [2] it was “Compound metabolized”; in data set [3], “Compound NOT metabolized”; in data set [4], “Compound NOT metabolized”; in data set [5], “Compound NOT metabolized”; in data set [6], “Compound metabolized”. Moreover, the “Bacterial Biotransformation” value in data set [7] is given as “Compound NOT metabolized”; in [8] it was “Compound NOT metabolized”; in data set [9], “Compound metabolized”; in data set [10] it was “Compound NOT metabolized”; in data set [11] it was “Compound metabolized”; in data set [12], “Compound NOT metabolized”. The “Bacterial Biotransformation” value in data set [13] is given as “Compound metabolized”; in data set [14] it was “Compound NOT metabolized”; in data set [15], “Compound NOT metabolized”; in data set [16], “Compound metabolized”; in data set [17] it was “Compound NOT metabolized”; in data set [18] it was “Compound NOT metabolized”. The “Bacterial Biotransformation” value in data set [19] and in data set [20] was “Compound NOT metabolized” in each case.
Take `CCCCCOC(=O)Nc1nc(=O)n([C@@H]2O[C@H](C)[C@@H](O)[C@H]2O)cc1F` [CAPECITABINE]: the “Bacterial Biotransformation” value in data set [1] is “Compound metabolized”; in data set [2], “Compound metabolized”; in [3] it was “Compound metabolized”; in data set [4] it was “Compound metabolized”; in data set [5], “Compound NOT metabolized”; in data set [6], “Compound metabolized”. Besides, the “Bacterial Biotransformation” value in [7], in data set [8], in [9], in data set [10], in [11] and in [12] was “Compound metabolized” in each case. Further, the “Bacterial Biotransformation” value in data set [13] is listed as “Compound metabolized”; in data set [14], “Compound NOT metabolized”; in [15], “Compound metabolized”; in data set [16], “Compound metabolized”; in data set [17] it was “Compound metabolized”; in data set [18], “Compound metabolized”. Also, the “Bacterial Biotransformation” value is given as “Compound NOT metabolized” in data set [19] and “Compound metabolized” in data set [20].
